# Where two headings read alike, the source gives them in different places.
# Target: human α7 nicotinic acetylcholine receptor (α7 nAChR) (Homo sapiens, UniProt P36544)
# Assay: Automated patch-clamp electrophysiology functional assay (Assay A)
# Assay type: cell-based
# Details: HEK cell line stably expressing human RIC-3 and human α7, IonFlux HT whole-cell population patch, 40 μM acetylcholine
# Experimental: The α7 nAChR positive allosteric modulator (PAM) activity of the present compounds may be tested using assays known in the art. The α7 nAChR PAMs described herein have activities in an automated patch-clamp electrophysiology functional assay as described in the examples. The assay was performed using the IonFlux HT in a whole-cell, population patch configuration. See Golden et al. Assay Drug Dev. Technol. (2011) 9:608-619. The compounds were assessed for their ability to modulate the function of the human […] nAChR stably expressed in a HEK cell line both in the presence, and in the absence of the natural 07 agonist acetylcholine. By performing a series of such measurements at different concentrations, the effective concentration of the α7 nAChR PAMs (EC50) was determined. See Spencer et al. Assay Drug Dev. Technol. (2012) 10:313-324.
# Automated patch-clamp electrophysiology was performed using the IonFlux HT (Fluxion Biosciences Inc., San Francisco, Calif.) in the whole-cell, population patch configuration. Test compounds were assessed for their ability to modulate the function of the α7 nicotinic acetylcholine receptor both in the presence, and in the absence of the natural α7 agonist acetylcholine. A HEK cell line stably expressing both human RIC-3 and human α7 (PrecisION hnAChR α7/RIC-3, Eurofins Pharma, St. Charles, Mo.) was cultured in 175 cm^2 triple-layer tissue culture flasks to no more than 90% confluency in DMEM/F-12 growth media supplemented with 10% heat-inactivated fetal bovine serum, 1% non-essential amino acids, 0.625 μg/mL Puromycin, and 400 μg/mL Geneticin. Immediately prior to assay, cells were detached by first aspirating growth media, rinsing with Dulbecco's phosphate buffered saline, and then adding 10 mL of Accutase (Innovative Cell Technologies, San Diego, Calif.) to the flask and then incubating at 37° C. for 5 minutes. Detached cells were then recovered by the addition of 40 mL of CHO-serum-free media supplemented with 25 mM HEPES, and rocked gently in a 50 mL conical tube for 20 minutes prior to patch-clamp assay. After recovery, cells were pelleted by centrifugation at 1,000 RPM for 1 minute in a compact bench top centrifuge; recovery media was aspirated and cells were resuspended in external recording solution (150 mM NaCl, 5 mM KCl, 2 mM CaCl2, 1 mM MgCl2, 10 mM HEPES, 12 mM dextrose) to a density of 5.0×10^6 cells/mL. The cell suspension was added to the cell inlet wells on an IonFlux HT population patch plate which had previously been rinsed and primed with deionized H2O. Test compounds were serially diluted in DMSO and then resuspended to the final test concentration in external recording solution, with, or without 40 μM acetylcholine added to the external recording solution; test compounds were then transferred to the IonFlux HT population patch plate. Internal recording solution (110 mM TrisPO4, 28 mM TrisBase, 0.1 mM CaCl2, 2 mM MgCl2, 11 mM EGTA, 4 mM MgATP) was added to the internal recording solution inlet wells on the IonFlux HT patch plate previously loaded with cells and test compounds, and the plate loaded into the IonFlux HT instrument. A protocol was executed on the IonFlux HT to trap the cells, break into the cells, and establish the whole-cell recording configuration; cells were voltage-clamped at a holding potential of −60 mV for the duration of the experiment, all experiments were conducted at room temperature, and the IonFlux HT injection pressure was 8 psi for solution applications. Upon establishing the whole-cell configuration, external recording solution was perfused into the recording chambers for 120 seconds and then 40 μM acetylcholine was applied for 1 second and immediately washed off with external recording solution for 60 seconds. The 40 μM acetylcholine-evoked α7 current served as the current response to which subsequent test compound effects, in the presence, or in the absence of 40 μM acetylcholine would be quantified relative to. […]
# Sequence of human α7 nicotinic acetylcholine receptor (α7 nAChR) (P36544 23-502): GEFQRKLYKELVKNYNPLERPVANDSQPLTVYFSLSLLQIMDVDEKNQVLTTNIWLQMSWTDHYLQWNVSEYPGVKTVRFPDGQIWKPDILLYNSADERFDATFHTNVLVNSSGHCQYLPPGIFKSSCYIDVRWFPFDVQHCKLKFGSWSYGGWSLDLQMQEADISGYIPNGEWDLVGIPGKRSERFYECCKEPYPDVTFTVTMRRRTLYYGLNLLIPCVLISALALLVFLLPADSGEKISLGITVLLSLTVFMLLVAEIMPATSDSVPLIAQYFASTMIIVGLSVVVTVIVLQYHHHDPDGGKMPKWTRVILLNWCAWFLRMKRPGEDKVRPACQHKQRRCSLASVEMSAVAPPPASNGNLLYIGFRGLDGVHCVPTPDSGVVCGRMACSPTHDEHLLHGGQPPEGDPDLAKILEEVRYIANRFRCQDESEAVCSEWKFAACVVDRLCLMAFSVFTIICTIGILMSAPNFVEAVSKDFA
Structure (SMILES),EC50 (read-out: α7 nAChR EC50) [µM],EC50 (read-out: α7 nAChR Potency) [µM]
"CC1(C)[C@@H](c2ccc(S(N)(=O)=O)cc2)[C@@H]1c1nc2c(o1)CCCC2 [Example C3, 4-[(1S,3S)-2,2-Dimethyl-3-(4,5,6,7-tetrahydro-1,3-benzoxazol-2-yl)cyclopropyl]benzenesulfonamide]",0.12,0.1 to 0.5
"NS(=O)(=O)c1ccc(C2CC2c2cnc3cc(Cl)cnc3c2)cc1 (racemic) [Example E2, 4-[2-(7-Chloro-1,5-naphthyridin-3-yl)cyclopropyl]benzenesulfonamide]",–,0.5 to 5
"CC1(C)[C@@H](c2ccc(S(N)(=O)=O)cc2)[C@@H]1c1nc2ccc(F)cc2s1 [Example 10, 4-((1S,3S)-3-(6-Fluorobenzo[d]thiazol-2-yl)-2,2-dimethylcyclopropyl)benzenesulfonamide]",0.45,0.1 to 0.5
"CC1(C)[C@@H](c2ccc(S(N)(=O)=O)cc2)[C@@H]1c1nc2ccc(Cl)cc2o1 [Example A5, 4-[(1S,3S)-3-(6-Chloro-1,3-benzoxazol-2-yl)-2,2-dimethyl-cyclopropyl]benzenesulfonamide]",1.2,0.5 to 5
"COc1ccc2oc([C@@H]3[C@@H](c4ccc(S(N)(=O)=O)cc4)C3(C)C)nc2c1 [Example B10, 4-[(1R,3R)-3-(5-Methoxy-1,3-benzoxazol-2-yl)-2,2-dimethyl-cyclopropyl]benzenesulfonamide]",0.66,0.5 to 5
"CC1(C)[C@@H](c2ccc(S(N)(=O)=O)cc2)[C@@H]1c1nc2c(F)cc(F)cc2s1 [Example A3, 4-[(1S,3S)-3-(4,6-Difluoro-1,3-benzothiazol-2-yl)-2,2-dimethyl-cyclopropyl]benzenesulfonamide]",0.96,0.5 to 5
"CC1(C)[C@@H](c2ccc(S(N)(=O)=O)cc2)[C@@H]1c1ncc2c(F)cccc2n1 [Example C2, 4-[(1S,3S)-3-(5-Fluoroquinazolin-2-yl)-2,2-dimethyl-cyclopropyl]benzenesulfonamide]",–,0.5 to 5
"CC1(C)[C@H](c2ccc(S(N)(=O)=O)cc2)[C@H]1c1nc2ccc(Cl)cc2o1 [Example B5, 4-[(1R,3R)-3-(6-Chloro-1,3-benzoxazol-2-yl)-2,2-dimethyl-cyclopropyl]benzenesulfonamide]",–,0.1 to 0.5
"CC1(C)[C@H](c2ccc(S(N)(=O)=O)cc2)[C@H]1c1nc2ccc(F)cc2s1 [Example B9, 4-[(1R,3R)-3-(6-Fluoro-1,3-benzothiazol-2-yl)-2,2-dimethyl-cyclopropyl]benzenesulfonamide]",0.17,0.1 to 0.5
"CN1CCOc2cc(C3CC3c3ccc(S(N)(=O)=O)cc3)cnc21 (racemic) [Example E13, 4-[2-(4-Methyl-2,3-dihydropyrido[3,2-b][1,4]oxazin-7-yl)cyclopropyl]benzenesulfonamide]",0.88,0.5 to 5
"CC1(C)[C@H](c2ccc(S(N)(=O)=O)cc2)[C@H]1c1nc2ccc(F)cc2o1 [Example B2, 4-[(1R,3R)-3-(6-Fluoro-1,3-benzoxazol-2-yl)-2,2-dimethyl-cyclopropyl]benzenesulfonamide]",0.3,0.1 to 0.5
"NS(=O)(=O)c1ccc([C@H]2C[C@@H]2c2nc3ccccc3o2)cc1 [Example B4, 4-[(1S,2S)-2-(1,3-Benzoxazol-2-yl)cyclopropyl]benzenesulfonamide]",–,0.5 to 5
"CC1(C)[C@@H](c2ccc(S(N)(=O)=O)cc2)[C@@H]1c1nc2ccc(F)cc2o1 [Example 2, 4-[(1S,3S)-3-(6-Fluoro-1,3-benzoxazol-2-yl)-2,2-dimethylcyclopropyl]benzenesulfonamide]",0.071,≤ 0.1
CC1(C)[C@@H](c2ccc(S(N)(=O)=O)cc2)[C@@H]1c1nc2ccccc2s1 [Example 9],0.35,0.1 to 0.5
"NS(=O)(=O)c1ccc([C@@H]2C[C@H]2c2nc3c(o2)CCCC3)cc1 [Example 4, 4-[(1R,2R)-2-(4,5,6,7-Tetrahydro-1,3-benzoxazol-2-yl)cyclopropyl]benzenesulfonamide]",0.61,0.5 to 5
"CC1(C)[C@H](c2ccc(S(N)(=O)=O)cc2)[C@H]1c1nc2c(F)cc(F)cc2s1 [Example B8, 4-[(1R,3R)-3-(4,6-Difluoro-1,3-benzothiazol-2-yl)-2,2-dimethyl-cyclopropyl]benzenesulfonamide]",–,0.1 to 0.5
"CC1(C)[C@H](c2ccc(S(N)(=O)=O)cc2)[C@H]1c1nc2c(o1)CCC2 [Example 11, 4-[(1R,3R)-3-(5,6-Dihydro-4H-cyclopenta[d][1,3]oxazol-2-yl)-2,2-dimethylcyclopropyl]benzenesulfonamide]",2,0.5 to 5
"Cn1cc2ccc(C3CC3c3ccc(S(N)(=O)=O)cc3)cc2n1 (racemic) [Example E12, 4-[2-(2-Methylindazol-6-yl)cyclopropyl]benzenesulfonamide]",5,0.5 to 5
"Cn1c([C@@H]2[C@@H](c3ccc(S(N)(=O)=O)cc3)C2(C)C)nc2cc(F)cc(F)c21 [Example D4, 4-[(1R,3R)-3-(5,7-Difluoro-1-methyl-benzimidazol-2-yl)-2,2-dimethyl-cyclopropyl]benzenesulfonamide]",–,5 to 50
"CC1(C)OC([C@H]2[C@H](c3ccc(S(N)(=O)=O)cc3)C2(F)F)=Nc2ccccc21 [Example 13, 4-[(1R,3R)-3-(4,4-Dimethyl-4H-3,1-benzoxazin-2-yl)-2,2-difluorocyclopropyl]benzenesulfonamide]",1.8,0.5 to 5
"NS(=O)(=O)c1ccc(C2CC2c2ccc3cc(Cl)ncc3c2)cc1 (racemic) [Example E6, 4-[2-(3-Chloro-7-isoquinolyl)cyclopropyl]benzenesulfonamide]",1.2,0.5 to 5
"NS(=O)(=O)c1ccc([C@@H]2C[C@H]2c2cnc3ccccc3n2)cc1 (relative stereo) [Example 7, 4-[trans-2-(Quinoxalin-2-yl)cyclopropyl]benzenesulfonamide]",1.3,0.5 to 5
"CC1(C)[C@@H](c2ccc(S(N)(=O)=O)cc2)[C@@H]1c1nc2ccccc2o1 [Example A4, 4-[(1S,3S)-3-(1,3-Benzoxazol-2-yl)-2,2-dimethyl-cyclopropyl]benzenesulfonamide]",0.28,0.1 to 0.5
"NS(=O)(=O)c1ccc(C2CC2c2cc3ccncc3s2)cc1 (racemic) [Example E7, 4-(2-Thieno[2,3-c]pyridin-2-ylcyclopropyl)benzenesulfonamide]",–,0.5 to 5
"Cc1nc2c(C3CC3c3ccc(S(N)(=O)=O)cc3)cccc2s1 (racemic) [Example E1, 4-[2-(2-Methyl-1,3-benzothiazol-4-yl)cyclopropyl]benzenesulfonamide]",0.41,0.1 to 0.5
"NS(=O)(=O)c1ccc(C2CC2c2cnn3ccccc23)cc1 (racemic) [Example E3, 4-(2-Pyrazolo[1,5-a]pyridin-3-ylcyclopropyl)benzenesulfonamide]",3.5,0.5 to 5
"NS(=O)(=O)c1ccc(C2CC2c2ccc3cc(C(F)(F)F)nnc3c2)cc1 (racemic) [Example E5, 4-[2-[3-(Trifluoromethyl)cinnolin-7-yl]cyclopropyl]benzenesulfonamide]",–,0.5 to 5
"CC1(C)[C@H](c2ccc(S(N)(=O)=O)cc2)[C@H]1c1nc2ccccc2s1 [Example B3, 4-[(1R,3R)-3-(1,3-Benzothiazol-2-yl)-2,2-dimethyl-cyclopropyl]benzenesulfonamide]",3.4,0.5 to 5

# Source: patent US10870630B2, “Substituted bicyclic heteroaryl allosteric modulators of nicotinic acetylcholine receptors” (Merck Sharp & Dohme Corp., priority 2016, dated 2020)
